# According to article PMC10458458, “Characterization of Anticancer Effects of the Analogs of DJ4, a Novel Selective Inhibitor of ROCK and MRCK Kinases” (Pharmaceuticals, 2023):
# Columns and labels:
# [1] = Solubility in 100% DMSO (observation); format: physicochemical
# [2] = test system: MDA-MB-231 breast cancer cells; assay: Cell migration (scratch/wound healing) assay; format: cell-based, human; conditions: MDA-MB-231, 2.5 µM for 24 h, then 9 h migration in compound-free medium; vehicle = 100%
# Protocol: Lastly, we examined the effects of these four analogs on migration of MDA-MB-231 breast cancer cells. Scratch assays were performed on cells treated with the various analogs for 24 h and then allowed to migrate into the scratched area for 9 h in compound-free media. […] Due to limited solubility, DJ-Morpholine was not tested for its effect on cell migration.
# Figure 9 DJ4 analogs inhibit migration of MDA-MB-231 breast cancer cells. (A) MDA-MB-231 cells were treated with 2.5 µM concentration of DJ4 analogs for 24 h. At the end of the treatment period, uniform scratches were made across the monolayer of cells. The cells were allowed to migrate in the scratched area for 9 h in a compound-free medium. The cells were stained with calcein (green) and propidium iodide (red) to study live and dead cell populations in the scratched area. (B) The distance migrated by the treated cells was normalized to vehicle control treated cells. Statistical significance was determined by one-way ANOVA followed by Dunnett’s multiple comparison test. The error bars indicate SEM from triplicates of the experiment. *** p < 0.001. TEXT PRINTED IN THE PICTURE: (B) DMSO: % Migration: 100 | (B) DJ4: % Migration: 32 *** | (B) DJ110: % Migration: 28 *** | (B) DJ Allyl: % Migration: 36 *** | (B) DJE4: % Migration: 48 ***
# Migration (scratch/wound healing) assays were performed using published procedures. Briefly, MDA-MB-231 cells were grown to confluence, and cells were treated with DMSO (vehicle control), DJ4, and its active analogs at 2.5 µM concentration for 24 h. At the end of the treatment period, uniform scratches were made in the monolayer of cells. The cells were allowed to migrate for 9 h in a compound-free medium. Light microscopic images were obtained at 0 h and 9 h after creating scratches. The width of the scratches was measured by using AxioVision software (AxioVision Inc., Carl Zeiss, Jena, Germany). The percentage of migration in each treatment at 9 h was calculated in comparison to 0 h readings. Furthermore, the percent migration in treatment groups was normalized to vehicle control (considering 100% migration). The experiment was performed in triplicate. Viability of the cells at the migration area was studied to confirm that the anti-migration effect of the analogs at the tested concentration and duration is independent of cell death. At the end of the migration period, cells were stained with calcein (Invitrogen, Waltham, MA, USA) and propidium iodide (Invitrogen, Waltham, MA, USA) dyes, as per the manufacturer’s protocol, which stain the live and dead cells, respectively.
# [3] = target: ROCK2 (Homo sapiens, UniProt O75116); assay: Cell-free biochemical kinase activity assay (pMYPT1 immunoblot); design: purchased Invitrogen
# Protocol: Cell-free biochemical kinase inhibitory activity of these compounds was evaluated at 1 µM concentration using the previously described ROCK1 kinase activity assay. Among the 27 analogs, we identified four analogs (DJ110, DJ-Allyl, DJE4, and DJ-Morpholine) with >50% inhibition of MYPT1 phosphorylation (Supplementary Figure S1). These four compounds were selected for further evaluation at 1 µM and 0.1 µM for their in vitro inhibitory activity against ROCK1, ROCK2, MRCKα, and MRCKβ kinases.
# Cell-free biochemical kinase activity was assayed using published procedures. Briefly, recombinant ROCK1 (9.48 nM) or ROCK2 (8.26 nM; Invitrogen, Waltham, MA, USA) was incubated in the presence of 0.1 and 1 µM concentrations of DJ4 analogs or DMSO in ROCK-assay buffer at room temperature (RT) for 10 min. MRCKα and MRCKβ (2 ng/µL; Invitrogen) assays were performed in the assay buffer recommended by the manufacturer. Recombinant MYPT1 (20 ng/µL; Millipore) and ATP (5 µM) were added to initiate the reaction. The reaction was incubated at 30 °C for 20 min. Western blot analysis of these samples for phosphorylation of MYPT1 was performed as per the method mentioned in our earlier publication. Briefly, an equal amount of sample was loaded on Bis-Tris gel (Novex, Life Technologies, Carlsbad, CA, USA), proteins were electrophoresed and transferred to PVDF membranes. The blots were probed with anti-pMYPT1 (Thr696) or anti-MYPT1 (Millipore) antibodies.
# [4] = test system: HS 578T; assay: NCI-60 screen (SRB); format: cell-based, human; conditions: HS 578T (Breast Cancer), 10 µM, 48 h; negative = cell death vs time zero
# Text: (§1) The selected active compounds were screened at NCI, as a part of In Vitro Cell Line Screening Project (IVCLSP), for their effect on cell growth in 60 different cancer cell lines. The 60 human cancer cell line panel included leukemia, melanoma, non-small cell lung cancer, colon, central nervous system (CNS), ovarian, renal, prostate, and breast cancer cell lines. The detailed procedure and applications of NCI-60 cell line screening can be found at https://dtp.cancer.gov/discovery_development/nci-60/default.htm (accessed on 9 January 2023). Briefly, cells were plated in 96-well plates and incubated for 24 h. One set of cells was fixed with trichloroacetic acid at time 0 h (Tz), and SRB (sulphorhodamine B) assays were performed to quantify the cells. The remaining set of cells were treated with 10 µM single concentration of each compound and incubated for 48 h (Te) after which the cells were fixed, and the SRB assays were performed. Data are presented as percent growth relative to the control as 100% according to the following calculations:
# (§2) When Te >/= Tz. Growth(%)=Te−Tz/C−Tz∗100 and when Te < Tz. (1) Growth(%)=Te−Tz/Tz∗100
# (§3) Values between 0–100 indicate cell growth, zero (0) indicates no cell growth, values < 0 indicate cell death.
# [5] = test system: NCI-H322M; assay: NCI-60 screen (SRB); format: cell-based, human; conditions: NCI-H322M (Non-Small Cell Lung Cancer), 10 µM, 48 h; negative = cell death vs time zero
# Text: as §1, §2, §3
# [6] = test system: SK-OV-3; assay: NCI-60 screen (SRB); format: cell-based, human; conditions: SK-OV-3 (Ovarian Cancer), 10 µM, 48 h; negative = cell death vs time zero
# Text: as §1, §2, §3
# [7] = test system: SN12C; assay: NCI-60 screen (SRB); format: cell-based, human; conditions: SN12C (Renal Cancer), 10 µM, 48 h; negative = cell death vs time zero
# Text: as §1, §2, §3
# [8] = test system: UO-31; assay: NCI-60 screen (SRB); format: cell-based, human; conditions: UO-31 (Renal Cancer), 10 µM, 48 h; negative = cell death vs time zero
# Text: as §1, §2, §3
# Chain of ROCK2 (O75116 whole entry): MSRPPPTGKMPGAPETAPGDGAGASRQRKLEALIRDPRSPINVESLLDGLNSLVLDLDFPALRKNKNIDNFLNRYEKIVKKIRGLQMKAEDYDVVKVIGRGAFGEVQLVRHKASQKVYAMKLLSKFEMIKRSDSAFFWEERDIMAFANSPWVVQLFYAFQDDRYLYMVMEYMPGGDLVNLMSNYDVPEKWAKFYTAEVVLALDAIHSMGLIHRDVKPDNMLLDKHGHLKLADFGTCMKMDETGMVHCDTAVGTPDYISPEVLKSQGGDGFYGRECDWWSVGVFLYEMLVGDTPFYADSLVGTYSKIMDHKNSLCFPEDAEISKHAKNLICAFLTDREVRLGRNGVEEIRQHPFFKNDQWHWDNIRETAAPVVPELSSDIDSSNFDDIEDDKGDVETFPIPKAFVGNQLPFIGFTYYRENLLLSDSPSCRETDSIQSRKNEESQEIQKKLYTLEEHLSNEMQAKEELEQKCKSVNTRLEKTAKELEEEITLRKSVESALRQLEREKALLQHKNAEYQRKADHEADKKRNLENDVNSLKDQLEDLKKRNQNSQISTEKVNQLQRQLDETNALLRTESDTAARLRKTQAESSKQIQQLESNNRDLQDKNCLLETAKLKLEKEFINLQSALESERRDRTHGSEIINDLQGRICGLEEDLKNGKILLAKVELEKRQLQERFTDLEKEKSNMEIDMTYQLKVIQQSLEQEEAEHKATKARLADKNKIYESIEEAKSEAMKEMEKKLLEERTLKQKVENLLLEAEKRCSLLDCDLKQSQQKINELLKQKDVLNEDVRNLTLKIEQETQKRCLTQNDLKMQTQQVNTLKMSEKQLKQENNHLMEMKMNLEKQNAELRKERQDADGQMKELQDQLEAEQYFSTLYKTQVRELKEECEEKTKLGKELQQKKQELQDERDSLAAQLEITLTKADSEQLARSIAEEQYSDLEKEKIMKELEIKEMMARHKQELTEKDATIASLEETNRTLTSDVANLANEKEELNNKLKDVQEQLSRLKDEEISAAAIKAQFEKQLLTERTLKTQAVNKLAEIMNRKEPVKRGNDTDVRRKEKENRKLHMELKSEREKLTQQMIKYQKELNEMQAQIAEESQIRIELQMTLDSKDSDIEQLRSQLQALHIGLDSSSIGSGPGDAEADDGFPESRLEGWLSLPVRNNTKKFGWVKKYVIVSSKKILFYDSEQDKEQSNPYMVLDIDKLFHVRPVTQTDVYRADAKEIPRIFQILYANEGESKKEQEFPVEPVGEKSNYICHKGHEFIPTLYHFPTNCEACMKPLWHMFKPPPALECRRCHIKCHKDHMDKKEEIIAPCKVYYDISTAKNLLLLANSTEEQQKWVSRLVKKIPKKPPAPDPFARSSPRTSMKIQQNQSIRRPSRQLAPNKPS
Structure (SMILES),solubility in 100% DMSO [1],% Migration compared to control [2] [%],"inhibition of kinase activity (qualitative immunoblot) ([3]; ROCK2, 0.1 µM)","inhibition of kinase activity (qualitative immunoblot) ([3]; ROCK2, 1 µM)",percent cell growth [4] [%],percent cell growth [5] [%],percent cell growth [6] [%],percent cell growth [7] [%],percent cell growth [8] [%]
O=C1N/C(=N\Cc2ccccc2)S/C1=C/c1c[nH]c2ncccc12 [DJ110],poor solubility,28,significantly inhibited,significantly inhibit,,,,,
C=CC/N=C1\NC(=O)/C(=C\c2c[nH]c3ncccc23)S1 [DJ-Allyl],much better solubility,36,,almost completely inhibited,−15.0,10.2,−7.0,24.0,3.1
O=C1N/C(=N\CCN2CCOCC2)S/C1=C/c1c[nH]c2ncccc12 [DJ-Morpholine],poor solubility,,,almost completely inhibited,,,,,
Cl.O=C1NC(=NCCc2ccccc2)SC1=Cc1c[nH]c2ncccc12 (mixture of isomers) [DJ4-HCl],,,,,8.8,19.6,2.1,33.5,36.6
CC/N=C1\NC(=O)/C(=C\c2c[nH]c3ncccc23)S1 [DJE4],much better solubility,48,,almost completely inhibited,−15.1,5.8,−10.3,12.6,7.5
O=C1N/C(=N\CCc2ccccc2)S/C1=C/c1c[nH]c2ncccc12 [DJ4],much better solubility,32,ineffective,significantly inhibit,8.8,5.2,27.0,15.9,25.2
